# Experiments:
# [1] = test system: cortical oligodendrocytes; conditions: added to the co-cultures; cited from earlier work
# [2] = test system: optic nerve oligodendrocytes; assay: In vitro myelination assay: co-culture of retinal ganglion cells and optic nerve oligodendrocytes; format: cell-based, rat
# Experimental: Co-cultures of RGCs and optic nerve oligodendrocytes were prepared and used as follows. Purified oligodendrocytes were plated on PDL/merosin (Chemicon) substrate-coated tissue culture dishes in defined DMEM Sato medium, promoting proliferation for two days. After 2 days, the medium was switched to defined DMEM Sato medium, which contained factors to promote differentiation. Twenty-four hours after the switch to differentiation medium, ADORA1 agonists were added. Retinal ganglion cells were plated 24 hours thereafter, and the medium consisted of 50% astrocyte-conditioned medium (method see above) with DMEM Sato medium mixed with fresh defined Neurobasal™ (Invitrogen) Sato medium, containing B27™ supplement and growth factors (BDNF and CNTF), to promote retinal ganglion cell survival and 0.5% FBS. The FBS was added to help retinal ganglion cell survival. This is because forskolin, which up-regulates cAMP, could not be used when adding any ADORA agonists or antagonists, since these receptors are G-protein-coupled receptors and therefore, regulators of cAMP themselves. Cultures were grown for two weeks, with medium changes occurring every three days.
# Optic nerve or cortical oligodendrocytes were purified from postnatal day 2-day 5 old rat pups by immuno-panning with the A2B5 antibody (ATCC). Retinal ganglion cells were purified from 5 day old rats by immunopanning with the Thy1 antibody T11D7.
# Purified oligodendrocytes were plated on PDL/merosin substrate-coated tissue culture dishes in defined DMEM Sato medium, promoting proliferation for two days. After 2 days, the medium was switched to defined DMEM Sato medium, containing factors promoting differentiation. Twenty-four hours after the switch to differentiation medium, ADORA1 agonists were added. Retinal ganglion cells were plated 24 hours thereafter, and medium consisted of astrocyte-conditioned medium with DMEM Sato medium mixed with defined Neurobasal™ Sato medium, containing growth factors promoting retinal ganglion cell survival and 0.5% FBS.
# Cultures were grown for two weeks, with medium changes occurring every three days. Control co-cultures were devoid of myelin segments, whereas oligodendrocytes co-cultures with ADORA1 agonist contained myelin segments originating from approximately 90% of the oligodendrocytes in these cultures.
# To address whether the effect of the adenosine 1 receptor (ADORA1) agonist only affects oligodendrocytes, or also affects retinal ganglion cells (RGCs) to lead to myelination, purified rat optic nerve oligodendrocytes were plated on PEI-pre-coated culture dishes (6-well plates, Falcon BD) in mitogenic medium and cultured for two days. After two days, oligodendrocytes were switched to differentiation medium and the agonist MECA (Sigma) was added at a 200 μM concentration to this culture medium 24 hours later. The agonist was removed by washing the cells at 24, 48 and 72 hours, respectively, after its administration. Oligodendrocytes were subsequently taken off the PEI plates by incubation with Trypsin (535 units/ml) in Earle's Balanced Salt Solution (EBSS; Invitrogen) at 37° C. for 5 minutes, washed with PBS containing 30% FBS (Hyclone) and were plated onto RGCs grown for one week on PDL/merosin substrate. Cultures were fixed for immunohistochemistry two weeks after co-plating the oligodendrocytes with the RGCs. Since the oligodendrocytes were pre-incubated separately with the ADORA1 agonist before they were added to the RGCs, the myelin figures observed in FIG. 6 are due to the switch in the oligodendrocytes themselves from a non-myelinating to a myelinating phenotype.
# To address the question of whether it is a permanent or a reversible switch if the oligodendrocytes are cultured without neurons, oligodendrocytes were treated with ADORA1 agonist for 72 hours and kept in culture alone for another 5 days. Cultured oligodendrocytes were then removed from the PEI-coated plate and co-cultured with RGCs grown for one week in culture. […]
# [3] = test system: MOG surface expression in cortical oligodendrocytes; assay: MOG cell surface label, cortical oligodendrocytes (time course and dose response); format: cell-based, rat
# Experimental: (§1) Purified rat optic nerve and enriched rat cortical oligodendrocytes were first grown in mitogenic medium and then switched to differentiation medium. Stimulated oligodendrocytes received the ADORA1 agonist, MECA, 24 hours later. Optic nerve oligodendrocytes were assessed 2, 4, and 6 days post MECA treatment, cortical oligodendrocytes, 3, 5, and 7 days post treatment. For the MOG cell surface label, cells were incubated with the anti-MOG antibody (1 μg/ml) for one hour at room temperature in phosphate buffered saline (PBS) containing sodium-pyruvate and glucose (Invitrogen) to ensure survival of cells during this time. Subsequently the cells were fixed, incubated in PBS containing 50% goat serum at RT for 30 minutes and incubated with a secondary antibody (FITC- or Cy3-coupled goat anti-mouse IgG antibody from Jackson Immunoresearch).
# To determine whether the surface expression of MOG would follow the same time course as that observed for the ADORA1 agonist, MECA, in the optic nerve myelination system, oligodendrocyte-enriched cortical cells were plated on PEI-coated plates in mitogenic medium, containing PDGFAA, and NT3 as factors stimulating proliferation. After 3 days, cells were switched to differentiation medium containing CNTF and NT3. 200 μM MECA was added either the same day or 24 hours later and was incubated on the cells for 24 hours, 48 hours, 72 hours, 4 days, and 7 days continuously. The cells were surface-labeled with an antibody to MOG, after the described incubation. For the ADORA1 agonist dose response experiment, MECA was added at concentrations of 200 μM, 100 μM, 50 μM, 25 μM and 12.5 μM, 24 hours after switching to differentiation medium, and was incubated on the cells continuously. On day 7, cells were surface-labeled with an anti-MOG antibody.
# [4] = test system: optic nerve oligodendrocytes; assay: Gene expression profiling (Affymetrix Rat genome 230 2.0), control vs 3-day MECA stimulated ON-oligodendrocytes; format: cell-based; conditions: p-value <0.05
# Description: To identify transient versus long-term gene expression changes, control and 3-day ADORA1 agonist (MECA) stimulated optic nerve oligodendrocytes were compared. As described elsewhere herein, 3 days of ADORA1 stimulation were sufficient to obtain myelin segments in the optic nerve myelination system. RNA samples were generated in triplicate, each replicate generated by pooling RNA from two separate oligodendrocyte preps (one prep from 12 litters of post-natal day 4 SD pups). RNA samples were analyzed for gene expression profiling using the Affymetrix GeneChip™ Rat genome 230 2.0 Array that provides coverage of approximately 30,000 transcripts. RNA was amplified using the MessageAmp II aRNA kit from Ambion to generate sufficient amounts of RNA for hybridization to arrays, as previously described.
# [5] = test system: optic nerve oligodendrocytes; assay: Gene expression profiling, control vs 1-day MECA-treated ON-oligodendrocytes; format: cell-based, rat; conditions: p-value <0.05, 1.2 fold-change cutoff
# Experimental: Based on the results obtained with rhoA expression, 24 hours was selected as the first time point in a broader gene expression analysis. Total RNA was isolated from control, and MECA-stimulated oligodendrocytes were harvested 24 hours after the addition of MECA. RNA samples were generated in triplicate, each replicate generated by pooling RNA from three separate oligodendrocyte preps (one prep from 12 litters (10 pups each) of post-natal day 5 SD pups). RNA samples were analyzed by gene expression profiling using the Affymetrix GeneChip™ Rat genome 230 2.0 Array that provides coverage of approximately 30,000 transcripts, i.e., the entire transcribed rat genome. RNA submitted was amplified by Expression Analysis using the MessageAmp II aRNA kit from Ambion to generate sufficient amounts of RNA for hybridization to arrays. A2B5 and cells were plated in 6-well plates and allowed to divide for 48 hours. Approximately 500,000 cells were plated per well. Two micrograms of RNA was subsequently used for analysis.
# To identify gene expression changes occurring during myelination, total RNA was isolated from control and MECA-stimulated oligodendrocytes 24 hours after the addition of MECA. RNA samples were generated in triplicate, each replicate generated by pooling RNA from three separate oligodendrocyte preps. RNA samples (2 μg/sample) were submitted to Expression Analysis for gene expression profiling using the Affymetrix GeneChip™ Rat genome 230 2.0 Array that provides coverage of approximately 30,000 transcripts. RNA submitted using the MessageAmp II aRNA kit from Ambion to generate sufficient amounts of RNA for hybridization to arrays.
# [6] = test system: cortical oligodendrocytes; assay: Gene expression profiling (Affymetrix Rat 230 2.0), control vs 1-day MECA stimulated cortical oligodendrocytes; format: cell-based
# Description: As a second filter to determine which genes were commonly regulated between pure optic nerve and enriched cortical oligodendrocytes, gene expression analysis comparing non-myelinating cortical oligodendrocytes with 1-day MECA induced cortical oligodendrocytes committed to myelination was made. Since cortical oligodendrocyte cell preparations yield larger numbers of cells, determining overlap between 1-day MECA treated ON-oligodendrocytes and 1-day MECA treated cortical oligodendrocytes help determine if use of cortical oligodendrocytes for future experiments to test genes of interest is a feasible option. Cortical oligodendrocytes were isolated from 2 litters of newborn SD rat pups. RNA for replicates were isolated from the cells which were plated on 3 separate 6-well tissue culture plates (approximately 500,000 cells per well) with control and treated cells included in separate wells on each plate. The important caveat to keep in mind when comparing gene expression in cortical oligodendrocytes with ON-oligodendrocytes is that the cortical oligodendrocytes are not a pure cell population. Cortical oligodendrocytes comprise approximately 80% oligodendrocytes and about 20% astrocytes, with some neuronal cells. Total RNA was generated in triplicate and hybridized to Affymetrix GeneChip™ Rat 230 2.0 arrays with approximately 30,000 genes. RNA submitted for analysis was amplified using the MessageAmp II aRNA kit from Ambion to generate sufficient amounts of RNA for hybridization to arrays and to keep sample preparation conditions similar to 1-day control and MECA treated ON-oligodendrocytes set forth elsewhere herein. Table 2 provides a summary of differentially regulated genes from comparison of control and 1-day MECA stimulated cortical oligodendrocytes.
# [7] = test system: MOG surface expression in optic nerve oligodendrocytes; assay: MOG cell surface label, optic nerve oligodendrocytes; format: cell-based, rat; conditions: after 6 days; control oligodendrocytes up-regulated MOG
# Experimental: as §1
# [8] = test system: rhoA expression in rat optic nerve oligodendrocytes; assay: rhoA expression by Quantitative RT-PCR in MECA-treated oligodendrocytes; format: cell-based
# Experimental: Primers and probes were designed using the Primer Express software from Applied Biosystems. Probes were designed with 6-FAM as fluorophore at the 5′end and TAMRA as quencher at the 3′ end. QRT-PCR reactions were set up as a one-step reaction using 20 ng of total RNA as template, and included 1× Taqman™ buffer, 5 mM MgCl2, 1.5 mM dNTP mix, 300 nM forward and reverse primers, […] Taqman™ probe, 20 units RNase inhibitor, 5 units Multiscribe™ MuLV reverse transcriptase and 2 units AmpliTaq™ Gold DNA polymerase in a 50 microliter reaction. All reagents used were from Applied Biosystems. Reactions were run on a ABI 7500 using the following cycling conditions: “Hold” at 48° C. for 30 minutes, “Hold” at 95 for 10 minutes, “Denature” at 95° C. for 15 seconds, and “Anneal/Extend” at 60° C. for 1 minute. The last two steps were repeated for 40 cycles.
# RhoA is a member of the Ras superfamily of small GTPases and functions as a GDP/GTP—regulated binary switch that regulates signal transduction pathways controlling actin cytoskeletal reorganization. […] Expression of rhoA was determined by Quantitative RT-PCR in oligodendrocytes treated with MECA or untreated for various times, as set forth below. […] Quantitative RT-PCR was set up as per standard protocol as a single step reaction. […]
structure (smiles),measurement,setting,value
Nc1ncnc2c1ncn2[C@@H]1O[C@H](CO)[C@@H](O)[C@H]1O [adenosine],amount of myelin observed,[1],increased the amount of myelin observed
same,adenosine responsiveness as measured by percentage of myelination,[2]; early versus late stage of oligodendrocyte differentiation,more responsive to adenosine at the early stage of differentiation
same,oligodendrocytes establishing segments of myelin on individual axons,"[2]; in the presence of adenosine or ADORA1 agonist, co-culture grown two weeks, control devoid of myelin segments",approximately 90%
"CNC(=O)[C@H]1O[C@@H](n2cnc3c(N)ncnc32)[C@H](O)[C@@H]1O [MECA, 5′-N-methylcarboxamidoadenosine]",time MECA must be present to repress MOG surface expression,[3]; 200 μM MECA,at least 72 hours
same,MOG protein expression on the cell surface,"[3]; after 7 days, control oligodendrocytes up-regulated MOG",remained low
same,concentrations insufficient to repress MOG surface expression,"[3]; continuous incubation, surface label on day 7",below 100 μM
same,"differentially regulated genes, fold change >1.1 fold",[4],2721 genes
same,"differentially regulated genes, fold change >1.2 fold",[4],2428 genes
same,"differentially regulated genes, fold change >1.5 fold",[4],1021 genes
same,down-regulated changes,[4],52%
same,up-regulated changes,[4],48%
same,overlap of differentially regulated genes between ON- and cortical oligodendrocytes,[5],414 genes
same,total differentially regulated genes in the group comparison,[5],1831 genes
same,genes exclusive to ON-oligodendrocytes,[5]; versus cortical oligodendrocytes,1417 genes
same,"differentially regulated genes, fold change >1.1 fold",[6]; p-value <0.05,1969 genes
same,"differentially regulated genes, fold change >1.2 fold",[6]; p-value <0.05,1425 genes
same,"differentially regulated genes, fold change >1.5 fold",[6]; p-value <0.05,252 genes
same,down-regulated changes,[6]; p-value <0.05,49%
same,up-regulated changes,[6]; p-value <0.05,51%
same,total differentially regulated genes in the group comparison,"[6]; p-value <0.05, 1.2 fold-change cutoff",1339 genes
same,genes exclusive to cortical oligodendrocytes,"[6]; p-value <0.05, 1.2 fold-change cutoff, versus ON-oligodendrocytes",925 genes
same,amount of myelin figures with continuous agonist,[2]; MECA present throughout the two weeks of co-culture with RGCs,optimal amount of myelin figures
same,myelin formation versus control cultures,[2]; after eight days in co-culture,myelin was observed covering the whole length of an axon
same,myelin formation versus control cultures,[2]; after five days in co-culture,no significant difference
same,myelin formation versus control cultures,[2]; after two weeks in co-culture,the segments (internodes) form
same,switch from non-myelinating to myelinating phenotype: permanent or reversible,"[2]; agonist 72 hours, then 5 days in culture alone, then co-culture with RGCs two weeks",permanent switch
same,doses that would not produce myelin segments,[2]; optic nerve myelination system dose-response,below 100 μM
same,MOG protein expression on the cell surface,[7],remained low
same,rhoA expression compared to control (untreated),"[8]; day 1 of MECA treatment, n=3",two-fold reduction
same,rhoA expression compared to control (untreated),"[8]; other time points (6 hours, 16 hours, 2 days, 3 days)",No significant differences

# From patent US20060183147A1, “Methods of identifying genes which modulate myelination” (Elan Pharmaceuticals, Inc., priority 2005, published 2006)
